Measurements reported in patent US6211209A, “Method of inhibiting connective tissue degradation” (Warner-Lambert Company, priority 1998, dated 2001).

Tested on: human articular cartilage
Assay: Human articular cartilage assay: IL-1α-induced proteoglycan loss from osteoarthritic cartilage
Assay type: cell-based
Conditions: for % Proteoglycan Release: 30 μM, with IL-1α, mean ± SE
From the text: Human articular cartilage was obtained from St. Joseph Hospital in Ypsilanti, Mich.; cell culture reagents from Gibco (Grand Island, N.Y.); human recombinant Interleukin-1α (IL1α) from Genzyme (Cambridge, Mass.); DMB from Polysciences (Warrington, Pa.); Falcon 24 well flat-bottom tissue culture plates from Becton Dickinson (Lincoln Park, N.Y.); Papain from Sigma (P-3125, St. Louis, Mo.); high purity dimethyl sulfoxide from Burdic & Jackson (081-1, Distributed by Baxter Healthcare, McGraw Park, Ill.); Sarstedt vials for 96-vial aluminum racks (Sarstedt, Newton, N.C.); Cetus Pro/Pette (Perkin Elmer, Norwalk, Conn.); Biomek 1000 (Beckman, Fullerton, Calif.)
The assay was performed in two phases. The cartilage pieces were first incubated with IL-1α in the presence of compound. The amount of proteoglycan released was then quantified by measuring chondroitin sulfate present in the media using the 1,9-Dimethylmethylene Blue Assay (DMB).
The articular cartilage used in this study was obtained from osteoarthritis patients undergoing total knee or hip replacment surgery. The ages of the patients ranged from 50 to 70 years. To establish cartilage organ cultures, uniform cartilage slices measuring 11 mm×11 mm were dissected from the underlying bone using a #20 scalpel blade and placed in isotonic saline. The cartilage slices were washed in Gey's balanced salt solution and placed (one piece/well) in Falcon 24 well flat-bottom tissue culture plates (Becton Dickinson, Lincoln Park, N.J.). The cartilage organ cultures were maintained in complete Ham's F-12 (supplemented with 10% fetal calf serum, 6.5 mg/mL Hepes, 58.5 μg/mL glutamine, 200 μg/mL MgSO4, 100 units/mL Pencillin G sodium, 100 μg/mL streptomycin sulfate, and 0.25 μg/mL amphotericin B) at 37° C. in a humidified atmosphere of 95% air and 5% CO2. The cartilage cultures were allowed to equilibrate in this medium for 4 to 5 days. Just before starting the experiment, the serum-containing spent medium was removed and cartilage cultures rinsed with 1 mL F-12 Nutrient Mixture (without phenol red) in order to remove residual FCS. Each treatment group was done in triplicate. […] All the media removed from cultures was collected and analyzed using the 1,9 DMB assay. At the end of experimental period, cartilage pieces were digested with papain and analysed using the 1,9 DMB assay.
The ability of a compound to inhibit proteoglycan release from cartilage pieces was quantified by measuring chondroitin sulfate. […] This color change was measured using a Titertek Multiscan MCC 340 plate reader at 540 nm. […] It was necessary to dilute (1:5, 1:10) the medium before a DMB assay was performed by adding 10 μL of collected media to 290 μL DMB (16 mg dye/L of 0.1 M formate buffer, pH 3.5, containing 5 mL ethanol) and reading at 540 nm. […]

`S=c1[nH]nc(-c2ccccc2Nc2ccccc2)o1` [Compound 1, 5-(2-Phenylamino-phenyl)-3H-[1,3,4]oxadiazole-2-thione] was tested, and the “% Proteoglycan Release” value (48 hours, n = 3 (control 3.7, IL-1α 9.0)) was 4.0 ± 0.2%, the “% Proteoglycan Release” value (96 hours, n = 3 (control 5.7, IL-1α 14.4)) was 7.4 ± 0.4% and the “% Proteoglycan Release” value (144 hours, n = 3 (control 7.0, IL-1α 16.9)) was 10.0 ± 0.8%. It also gave an inhibition at 30 µM (over the course of the experiment, human osteoarthritic cartilage) of over 70%.
